Measurements published in ChEMBL document CHEMBL4715821, “Discovery of 4-ethoxy-7H-pyrrolo[2,3-d]pyrimidin-2-amines as potent, selective and orally bioavailable LRRK2 inhibitors” (Bioorg Med Chem Lett, 2018).

How the values were obtained:
[1] = target: Beta-adrenergic receptor kinase 1 (Homo sapiens) (UniProt P25098); assay: Inhibition of wild-type human full length GRK2 (M1 to L689 residues) expressed in mammalian expression system assessed as residual activity at 1 uM by Kinomescan method relative to control
[2] = target: Cyclin-Y/Cyclin-dependent kinase 16 (Homo sapiens) (UniProt Q00536+Q8ND76); assay: Inhibition of CDK16/Cyclin Y (unknown origin) assessed as residual activity at 1 uM by Kinomescan method relative to control; format: protein-complex assay
[3] = target: Activated CDC42 kinase 1 (Homo sapiens) (UniProt Q07912); assay: Inhibition of ACK1 (unknown origin) assessed as residual activity at 1 uM relative to control
[4] = target: G protein-coupled receptor kinase 6 (Homo sapiens) (UniProt P43250); assay: Inhibition of GRK6 (unknown origin) assessed as residual activity at 1 uM by Kinomescan method relative to control
[5] = target: Mitogen-activated protein kinase 7 (Homo sapiens) (UniProt Q13164); assay: Inhibition of wild-type human partial length ERK5 (M1 to A409 residues) expressed in bacterial expression system assessed as residual activity at 1 uM by Kinomescan method relative to control
[6] = target: Serine/threonine-protein kinase 4 (Homo sapiens) (UniProt Q13043); assay: Inhibition of wild-type human full length MST1 (M1 to F487 residues) expressed in bacterial expression system assessed as residual activity at 1 uM by Kinomescan method relative to control
[7] = target: Ephrin type-B receptor 2 (Homo sapiens) (UniProt P29323); assay: Inhibition of wild-type human partial length EPHB2 (I597 to L902 residues) expressed in bacterial expression system assessed as residual activity at 1 uM by Kinomescan method relative to control
[8] = target: Vascular endothelial growth factor receptor 2 (Homo sapiens) (UniProt P35968); assay: Inhibition of wild-type human partial length VEGFR2 (R787 to P1253 residues) expressed in mammalian expression system assessed as residual activity at 1 uM by Kinomescan method relative to control
[9] = target: Protein kinase C epsilon type (Homo sapiens) (UniProt Q02156); assay: Inhibition of PKCepsilon (unknown origin) assessed as residual activity at 1 uM by Kinomescan method relative to control
Chain of Protein kinase C epsilon type (Homo sapiens) (Q02156 whole entry): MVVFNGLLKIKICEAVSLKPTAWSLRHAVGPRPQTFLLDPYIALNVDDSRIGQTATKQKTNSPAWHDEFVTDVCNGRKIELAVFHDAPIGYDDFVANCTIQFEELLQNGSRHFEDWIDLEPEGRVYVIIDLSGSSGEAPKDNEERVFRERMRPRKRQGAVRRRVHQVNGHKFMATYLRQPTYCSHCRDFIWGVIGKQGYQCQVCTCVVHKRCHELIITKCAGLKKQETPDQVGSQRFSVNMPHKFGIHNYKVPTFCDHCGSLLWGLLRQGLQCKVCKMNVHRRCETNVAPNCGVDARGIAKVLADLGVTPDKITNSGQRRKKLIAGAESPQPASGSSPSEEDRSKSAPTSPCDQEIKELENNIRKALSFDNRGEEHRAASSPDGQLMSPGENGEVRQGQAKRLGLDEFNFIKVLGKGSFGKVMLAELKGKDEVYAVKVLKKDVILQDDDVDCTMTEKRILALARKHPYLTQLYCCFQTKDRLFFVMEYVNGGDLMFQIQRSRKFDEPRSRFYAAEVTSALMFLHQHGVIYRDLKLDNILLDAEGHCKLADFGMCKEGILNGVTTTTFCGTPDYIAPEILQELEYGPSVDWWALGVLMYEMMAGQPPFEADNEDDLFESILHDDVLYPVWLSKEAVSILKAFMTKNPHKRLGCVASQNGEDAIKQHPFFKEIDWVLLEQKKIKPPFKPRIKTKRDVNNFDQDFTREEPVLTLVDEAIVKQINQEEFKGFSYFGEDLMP

[10] = target: Serine/threonine-protein kinase N3 (Homo sapiens) (UniProt Q6P5Z2); assay: Inhibition of PKN3 (unknown origin) assessed as residual activity at 1 uM by Kinomescan method relative to control
Chain of Serine/threonine-protein kinase N3 (Homo sapiens) (Q6P5Z2 whole entry, looked up, the tested form may be a part): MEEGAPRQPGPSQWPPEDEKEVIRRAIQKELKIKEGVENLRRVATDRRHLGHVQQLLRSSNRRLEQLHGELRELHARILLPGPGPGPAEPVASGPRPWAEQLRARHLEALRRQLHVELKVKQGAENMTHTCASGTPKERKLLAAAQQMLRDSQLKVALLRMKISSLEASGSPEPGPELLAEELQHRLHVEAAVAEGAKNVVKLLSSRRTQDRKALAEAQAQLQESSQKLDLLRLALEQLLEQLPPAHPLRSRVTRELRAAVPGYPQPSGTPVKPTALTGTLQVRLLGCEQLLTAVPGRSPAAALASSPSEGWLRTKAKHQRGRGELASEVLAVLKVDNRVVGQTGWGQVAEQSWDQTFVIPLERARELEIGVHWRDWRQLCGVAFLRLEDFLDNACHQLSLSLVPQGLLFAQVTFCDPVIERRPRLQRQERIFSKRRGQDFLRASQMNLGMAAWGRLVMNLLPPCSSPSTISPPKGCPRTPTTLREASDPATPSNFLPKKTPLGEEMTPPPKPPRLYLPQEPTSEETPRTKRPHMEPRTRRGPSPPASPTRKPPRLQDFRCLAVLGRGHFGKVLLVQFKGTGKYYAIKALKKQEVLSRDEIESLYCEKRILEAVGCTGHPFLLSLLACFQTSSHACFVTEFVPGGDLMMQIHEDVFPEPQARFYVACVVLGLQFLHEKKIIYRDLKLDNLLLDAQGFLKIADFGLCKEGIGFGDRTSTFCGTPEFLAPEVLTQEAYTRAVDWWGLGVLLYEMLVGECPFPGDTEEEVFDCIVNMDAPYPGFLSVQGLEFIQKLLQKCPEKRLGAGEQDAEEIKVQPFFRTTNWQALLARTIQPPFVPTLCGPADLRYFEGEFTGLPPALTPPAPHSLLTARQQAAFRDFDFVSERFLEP

[11] = target: Macrophage-stimulating protein receptor (Homo sapiens) (UniProt Q04912); assay: Inhibition of wild-type human partial length MST1R (I1057 to L1363 residues) expressed in bacterial expression system assessed as residual activity at 1 uM by Kinomescan method relative to control
[12] = target: Tyrosine-protein kinase CSK (Homo sapiens) (UniProt P41240); assay: Inhibition of wild-type human full length CSK (M1 to L450 residues) expressed in bacterial expression system assessed as residual activity at 1 uM by Kinomescan method relative to control
[13] = target: Homeodomain-interacting protein kinase 4 (Homo sapiens) (UniProt Q8NE63); assay: Inhibition of wild-type human partial length HIPK4 (M1 to V384 residues) expressed in bacterial expression system assessed as residual activity at 1 uM by Kinomescan method relative to control
[14] = target: Protein-tyrosine kinase 2-beta (Homo sapiens) (UniProt Q14289); assay: Inhibition of wild-type human full length PYK2 (M1 to E967 residues) expressed in bacterial expression system assessed as residual activity at 1 uM by Kinomescan method relative to control
[15] = target: Myosin-IIIb (Homo sapiens) (UniProt Q8WXR4); assay: Inhibition of wild-type human partial length MYO3B (M1 to D357 residues) expressed in bacterial expression system assessed as residual activity at 1 uM by Kinomescan method relative to control
[16] = target: Serine/threonine-protein kinase BRSK2 (Homo sapiens) (UniProt Q8IWQ3); assay: Inhibition of wild-type human full length BRSK2 (M1 to L674 residues) expressed in bacterial expression system assessed as residual activity at 1 uM by Kinomescan method relative to control
Chain of Serine/threonine-protein kinase BRSK2 (Homo sapiens) (Q8IWQ3 whole entry, the tested form may be a part): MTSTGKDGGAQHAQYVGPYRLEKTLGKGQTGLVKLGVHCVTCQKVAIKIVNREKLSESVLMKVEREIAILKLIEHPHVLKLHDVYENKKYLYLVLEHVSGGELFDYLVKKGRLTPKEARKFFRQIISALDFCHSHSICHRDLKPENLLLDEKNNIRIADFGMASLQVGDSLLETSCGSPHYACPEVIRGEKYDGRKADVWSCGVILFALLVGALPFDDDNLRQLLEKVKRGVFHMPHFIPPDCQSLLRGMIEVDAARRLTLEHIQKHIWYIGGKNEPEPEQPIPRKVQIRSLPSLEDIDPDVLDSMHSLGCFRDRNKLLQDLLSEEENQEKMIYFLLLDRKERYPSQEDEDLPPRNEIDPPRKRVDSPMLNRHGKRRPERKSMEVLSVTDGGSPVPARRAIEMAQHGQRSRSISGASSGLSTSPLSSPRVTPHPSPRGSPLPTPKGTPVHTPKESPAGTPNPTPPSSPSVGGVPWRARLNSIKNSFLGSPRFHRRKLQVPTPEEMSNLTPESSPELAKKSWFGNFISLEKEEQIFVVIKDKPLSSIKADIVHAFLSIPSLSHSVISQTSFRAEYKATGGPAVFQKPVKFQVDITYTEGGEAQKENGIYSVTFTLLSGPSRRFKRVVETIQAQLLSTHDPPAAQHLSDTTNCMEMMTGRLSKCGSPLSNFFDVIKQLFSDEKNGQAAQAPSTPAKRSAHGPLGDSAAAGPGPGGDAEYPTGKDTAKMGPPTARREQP

[17] = target: Serine/threonine-protein kinase SIK2 (Homo sapiens) (UniProt Q9H0K1); assay: Inhibition of wild-type human full length SIK2 (M1 to N926 residues) expressed in bacterial expression system assessed as residual activity at 1 uM by Kinomescan method relative to control
Chain of Serine/threonine-protein kinase SIK2 (Homo sapiens) (Q9H0K1 whole entry, looked up, the tested form may be a part): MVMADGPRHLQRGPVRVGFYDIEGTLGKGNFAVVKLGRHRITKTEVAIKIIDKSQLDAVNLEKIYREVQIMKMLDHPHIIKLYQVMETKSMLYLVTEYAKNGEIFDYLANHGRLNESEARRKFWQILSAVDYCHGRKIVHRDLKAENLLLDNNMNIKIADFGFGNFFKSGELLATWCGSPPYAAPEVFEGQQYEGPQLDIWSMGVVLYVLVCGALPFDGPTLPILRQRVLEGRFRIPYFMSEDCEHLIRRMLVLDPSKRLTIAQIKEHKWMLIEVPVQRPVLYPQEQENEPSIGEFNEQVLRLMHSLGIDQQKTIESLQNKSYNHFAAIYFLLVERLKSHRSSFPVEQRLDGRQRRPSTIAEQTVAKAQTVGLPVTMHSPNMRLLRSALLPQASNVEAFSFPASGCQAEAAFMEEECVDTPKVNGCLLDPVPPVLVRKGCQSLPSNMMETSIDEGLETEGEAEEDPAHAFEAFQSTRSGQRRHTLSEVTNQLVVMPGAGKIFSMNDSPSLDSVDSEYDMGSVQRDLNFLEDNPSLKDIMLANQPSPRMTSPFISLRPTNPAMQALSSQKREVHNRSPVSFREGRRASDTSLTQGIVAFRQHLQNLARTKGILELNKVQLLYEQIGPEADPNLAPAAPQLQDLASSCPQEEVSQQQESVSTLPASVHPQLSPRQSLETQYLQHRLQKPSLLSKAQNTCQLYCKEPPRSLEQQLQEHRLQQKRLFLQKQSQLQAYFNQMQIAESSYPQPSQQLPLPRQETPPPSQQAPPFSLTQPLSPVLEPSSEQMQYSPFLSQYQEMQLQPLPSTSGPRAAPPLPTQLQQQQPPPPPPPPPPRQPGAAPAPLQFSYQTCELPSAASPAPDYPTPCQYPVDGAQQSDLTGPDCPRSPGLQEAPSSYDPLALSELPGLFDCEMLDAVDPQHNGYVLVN

[18] = target: Tyrosine-protein kinase Tec (Homo sapiens) (UniProt P42680); assay: Inhibition of wild-type human partial length TEC (L341 to D620 residues) expressed in bacterial expression system assessed as residual activity at 1 uM by Kinomescan method relative to control
[19] = target: Serine/threonine-protein kinase ULK3 (Homo sapiens) (UniProt Q6PHR2); assay: Inhibition of wild-type human partial length ULK3 (M1 to Q290 residues) expressed in mammalian expression system assessed as residual activity at 1 uM by Kinomescan method relative to control
Chain of Serine/threonine-protein kinase ULK3 (Homo sapiens) (Q6PHR2 whole entry, the tested form may be a part): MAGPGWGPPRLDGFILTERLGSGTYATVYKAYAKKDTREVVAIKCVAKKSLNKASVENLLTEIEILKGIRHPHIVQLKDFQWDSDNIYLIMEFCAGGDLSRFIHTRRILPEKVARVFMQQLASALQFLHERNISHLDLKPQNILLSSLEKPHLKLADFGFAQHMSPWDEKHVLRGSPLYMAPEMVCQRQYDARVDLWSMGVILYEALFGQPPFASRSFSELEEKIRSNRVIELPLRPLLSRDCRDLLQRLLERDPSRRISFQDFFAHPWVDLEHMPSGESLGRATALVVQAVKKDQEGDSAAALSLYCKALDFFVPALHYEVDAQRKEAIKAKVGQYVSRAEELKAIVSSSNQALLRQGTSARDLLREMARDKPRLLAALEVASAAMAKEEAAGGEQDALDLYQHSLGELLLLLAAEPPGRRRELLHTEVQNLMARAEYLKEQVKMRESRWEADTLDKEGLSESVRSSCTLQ

[20] = target: Serine/threonine-protein kinase ULK1 (Homo sapiens) (UniProt O75385); assay: Inhibition of wild-type human partial length ULK1 (M1 to T309 residues) expressed in mammalian expression system assessed as residual activity at 1 uM by Kinomescan method relative to control
Chain of Serine/threonine-protein kinase ULK1 (Homo sapiens) (O75385 whole entry, the tested form may be a part): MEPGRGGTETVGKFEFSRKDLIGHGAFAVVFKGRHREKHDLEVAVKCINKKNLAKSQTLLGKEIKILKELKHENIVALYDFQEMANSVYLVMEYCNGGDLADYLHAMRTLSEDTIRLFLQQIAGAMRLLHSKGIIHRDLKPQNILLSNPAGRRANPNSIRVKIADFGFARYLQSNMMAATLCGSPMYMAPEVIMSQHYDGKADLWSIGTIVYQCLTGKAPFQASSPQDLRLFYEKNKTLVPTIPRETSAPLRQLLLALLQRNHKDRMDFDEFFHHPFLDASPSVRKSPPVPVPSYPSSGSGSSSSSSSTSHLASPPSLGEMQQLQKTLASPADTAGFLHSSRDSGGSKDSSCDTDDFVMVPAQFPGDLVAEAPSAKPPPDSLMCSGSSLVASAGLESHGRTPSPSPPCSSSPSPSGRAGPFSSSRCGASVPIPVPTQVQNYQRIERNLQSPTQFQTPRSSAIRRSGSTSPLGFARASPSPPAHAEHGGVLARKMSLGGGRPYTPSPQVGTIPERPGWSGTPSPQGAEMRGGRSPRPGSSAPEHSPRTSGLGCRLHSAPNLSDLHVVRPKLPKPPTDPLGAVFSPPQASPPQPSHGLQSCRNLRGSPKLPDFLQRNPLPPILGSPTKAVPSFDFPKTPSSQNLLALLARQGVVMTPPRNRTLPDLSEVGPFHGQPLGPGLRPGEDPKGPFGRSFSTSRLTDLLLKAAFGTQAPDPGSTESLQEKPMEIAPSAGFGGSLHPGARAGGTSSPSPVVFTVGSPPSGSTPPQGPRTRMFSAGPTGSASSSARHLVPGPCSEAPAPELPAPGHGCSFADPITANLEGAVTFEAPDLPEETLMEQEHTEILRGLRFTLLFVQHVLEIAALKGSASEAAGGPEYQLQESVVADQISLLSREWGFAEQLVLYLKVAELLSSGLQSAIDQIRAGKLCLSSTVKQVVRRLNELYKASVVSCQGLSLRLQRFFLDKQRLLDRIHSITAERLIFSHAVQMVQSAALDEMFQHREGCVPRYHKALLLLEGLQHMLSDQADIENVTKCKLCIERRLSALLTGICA

[21] = target: Mitogen-activated protein kinase 10 (Homo sapiens) (UniProt P53779); assay: Inhibition of wild-type human partial length JNK3 (V28 to Q422 residues) expressed in mammalian expression system assessed as residual activity at 1 uM by Kinomescan method relative to control
[22] = target: Ephrin type-A receptor 3 (Homo sapiens) (UniProt P29320); assay: Inhibition of wild-type human partial length EPHA3 (D604 to K889 residues) expressed in bacterial expression system assessed as residual activity at 1 uM by Kinomescan method relative to control
[23] = target: Dual specificity mitogen-activated protein kinase kinase 1 (Homo sapiens) (UniProt Q02750); assay: Inhibition of wild-type human full length MEK1 (M1 to V393 residues) expressed in mammalian expression system assessed as residual activity at 1 uM by Kinomescan method relative to control
[24] = target: Insulin-like growth factor 1 receptor (Homo sapiens) (UniProt P08069); assay: Inhibition of wild-type human partial length IGF1R (L972 to D1294 residues) expressed in bacterial expression system assessed as residual activity at 1 uM by Kinomescan method relative to control
[25] = target: TRAF2 and NCK-interacting protein kinase (Homo sapiens) (UniProt Q9UKE5); assay: Inhibition of wild-type human partial length TNIK (D4 to K311 residues) expressed in bacterial expression system assessed as residual activity at 1 uM by Kinomescan method relative to control
[26] = target: MAP/microtubule affinity-regulating kinase 4 (Homo sapiens) (UniProt Q96L34); assay: Inhibition of wild-type human partial length MARK4 (K29 to G340 residues) expressed in bacterial expression system assessed as residual activity at 1 uM by Kinomescan method relative to control
[27] = target: Proto-oncogene tyrosine-protein kinase Src (Homo sapiens) (UniProt P12931); assay: Inhibition of wild-type human partial length c-Src (M1 to L450 residues) expressed in bacterial expression system assessed as residual activity at 1 uM by Kinomescan method relative to control

For `CCOc1nc(Nc2ccc(C(=O)N3CCOCC3)cc2OC)nc2[nH]ccc12`, the Activity [1] was 100%, the Activity [2] was 105% and the Activity [3] was 27.9%. The Activity [4] was 95.6%, the Activity [5] was 99.1% and the Activity [6] was 99.8%. For the same compound, the Activity [7] was 95.3%, the Activity [8] was 97.7% and the Activity [9] was 95%. For the same compound, the Activity [10] was 96.5%, the Activity [11] was 96.9% and the Activity [12] was 104%. For the same compound, the Activity [13] was 101%, the Activity [14] was 36.1% and the Activity [15] was 48.9%. It also gave an Activity [16] of 88.8%, an Activity [17] of 97% and an Activity [18] of 99.3%. The Activity [19] was 82%, the Activity [20] was 86.1% and the Activity [21] was 100%. It also gave an Activity [22] of 99.6%, an Activity [23] of 100% and an Activity [24] of 45.4%. For the same compound, the Activity [25] was 98.4%, the Activity [26] was 101% and the Activity [27] was 99%.
